Where two headings read alike, the source gives them in different places.

The record followed here is paper PMC3942691, “The Dipeptide Monoester Prodrugs of Floxuridine and Gemcitabine—Feasibility of Orally Administrable Nucleoside Analogs” (Pharmaceuticals, 2014).

The test system of one data set is AsPC-1 cells. Kind of data set: Uptake study in AsPC-1 cells. To be noted: 0.1 mM, 1 h. The data set is classed as cell-based. As to the method: (§1) Caco-2, Panc-1, and AsPC-1 cells were grown on a 6-well plate for 18, 6, and 6 days, respectively. Wells were rinsed with MES (pH 6.0) buffer twice. Fresh MES buffer was reapplied to each well and incubated at 37 °C for 15 min. Each drug was individually tested from freshly prepared solutions in MES buffer (0.1 mM, total 0.3 mL) with the presence and the absence of 10 mM glycyl-proline (Gly-Pro). The solution was placed in each well and incubated at 37 °C for 60 min. Drug solution was removed and 3 mL of ice-cold PBS was immediately placed in each well. Each well was rinsed with 3 mL of cold-PBS twice and 0.5 mL of methanol/H2O (1:1) containing 0.1% TFA was placed in each well. The cell suspension was collected and transferred to a new tube. Those tubes were spun at 1,000 × g at 4 °C for 5 min. The supernatant was mixed with equal amount of water with either 0.1% formic acid or 0.1% ammonium hydroxide for LC-MS analysis. The cell pullets were used to determine protein amount with the Bio-Rad DC Protein Assay using bovine serum albumin as a standard.
(§2) The LC-MS analytical method of 5′-mono amino acid ester prodrugs of floxuridine has been reported previously. The LC-MS analysis of dipeptide monoester prodrugs of floxuridine and gemcitabine along with their parent drugs was modified and performed in a similar manner. Briefly, LC-MS analysis of the uptake drug amount was performed in triplicate on LCMS-2010EV (Shimadzu Scientific Instruments, Kyoto, Japan) equipped with an ESI (electrospray ionization) source. The Shimadzu LC-MS system consisting of Shimadzu LC-20AD pumps with DGU-20A in-line vacuum degasser units, and SIL-20A HT autosampler with an InertSustain C-18, 2.1 × 50 mm, 3 µm particle size, (GL Sciences, Torrance, CA, USA) was used for the separation and the effluent from the column was introduced directly to the ionization source. The system was controlled by Shimadzu LCMS solution software (version 3) to collect and process data. All samples were run with Solvent A and Solvent B with Solvent B gradient changing from 0%–90% at a rate of 13.8%/min over a 22 min run. […]

The subject of a further data set is mouse jejunum. Kind of data set: In situ single-pass intestinal perfusion in mice (Peff). The data set is classed as in vivo. The note with it: for Peff, mouse perfusion: 100 µM; for fold higher membrane permeability than parent drug: in situ. As to the method:
The perfusion buffer (pH6.0) consisted of 145 mM NaCl, 0.5 mM MgCl2, 1 NaH2PO4, 1 mM CaCl2, 3 mM KCl, 5 mM glucose, and 5 mM MES. The pH of the buffer was adjusted to pH6.0. This perfusion buffer also contained phenol-red (14 µM) as a non-absorbable marker for water flux measurements.
All animal experiments were conducted using protocols approved by the University of Michigan Committee of Use and Care of Animals (UCUCA). Female BALB/c mice (Charles River, IN, USA) weighing 20–25 g were used for all perfusion studies. Prior to each experiment, mice were fasted overnight with free access to water.
The procedure for the in situ single-pass intestinal perfusion is previously reported. Briefly, mice were anesthetized with an i.m. injection of ketamine-xylazine mixture (ketamine: 80–120 mg/kg, xylazine: 5–10 mg/kg) and placed on a heated pad maintained at 37 °C. The abdomen was opened by a midline incision and a jejunal segment (approximately 10 cm) was carefully exposed to cannulate both ends with flexible PVC tubing (2.06 mm i.d., Fisher Scientific Inc., Pittsburgh, PA, USA). All solutions were incubated in a 37 °C water-bath. The isolated segment was rinsed with blank perfusion buffer to clean out any residual debris.
At the start of the study, the test compound (100 µM) in perfusion buffer (pH 6.0) including phenol red was perfused through the intestinal segment (Watson-Marlow Pump 323S, Watson-Marlow Bredel Inc., Wilimington, MA, USA), at the flow rate of 0.1 mL/min. The perfusion buffer was perfused for 30 min to assure steady-state and samples were taken in every 10 min for 90 min. At the end of perfusion, blood samples were collected by cardiac puncture. Blood samples with heparin were centrifuged at 1,000 × g for 10 min at 4 °C to collect plasma samples for LC-MS analysis. Following the termination of the experiment, the length of each perfused intestinal segment was measured.
The net water flux in the mouse perfusion studies was determined using phenol red (14 µM), a non-absorbed and non-metabolized marker. The measured Cout/Cin ratio of test compound was corrected for water flux according to the following equation: [drawing 1] where Cin phenol red and Cout phenol red are equal to the concentration of phenol red in the inlet and the outlet samples, respectively. The effective permeability (Peff; cm/s) through the mouse intestinal wall in the single-pass intestinal perfusion studies was determined according to the following equation: [drawing 2] where Q is the perfusion buffer flow rate (0.1 mL/min), C′out/C′in is the ratio of the outlet/inlet concentration of test compound that is adjusted for water transport, R is the radius of the intestinal segment (set to 0.1 cm), and L is the length of the perfused intestinal segment.
The stability samples of prodrugs and their metabolites, and perfusion samples were determined on an Agilent HPLC system (Agilent Technologies, Santa Clara, CA, USA). The HPLC system consisted of Agilent pumps (1100 series), an Agilent autosampler (1200 series), and an Agilent UV-Vis detector (1100 series) controlled by Chemstation® 32 software (version B.01.03). Samples were resolved in an Agilent Eclipse Plus C18 reverse-phase column (3.5 µm, 4.6 × 75 mm) equipped with a guard column. The mobile phase consisted of 0.1% TFA/water (Solvent A) and 0.1% TFA/acetonitrile (Solvent B) with the solvent B gradient changing from 0%–56% at a rate of […] during a 15 min run for gemcitabine and gemcitabine prodrugs. Standard curves generated for each prodrug and their parent drug were utilized for quantitation of integrated area under peaks. The detection wavelength was 254 nm and spectra were acquired in the 220–380 nm wavelength range. The detection wavelength for phenol red was 430 nm.

The test system of the next data set is Panc-1 cells. Kind of data set: Uptake study in Panc-1 cells. The data set is classed as cell-based. The note with it: 0.1 mM, 1 h. As to the method: as §1
The LC-MS analytical method of 5′-mono amino acid ester prodrugs of floxuridine has been reported previously. The LC-MS analysis of dipeptide monoester prodrugs of floxuridine and gemcitabine along with their parent drugs was modified and performed in a similar manner. Briefly, LC-MS analysis of the uptake drug amount was performed in triplicate on LCMS-2010EV (Shimadzu Scientific Instruments, Kyoto, Japan) equipped with an ESI (electrospray ionization) source. The Shimadzu LC-MS system consisting of Shimadzu LC-20AD pumps with DGU-20A in-line vacuum degasser units, and SIL-20A HT autosampler with an InertSustain C-18, 2.1 × 50 mm, 3 µm particle size, (GL Sciences, Torrance, CA, USA) was used for the separation and the effluent from the column was introduced directly to the ionization source. The system was controlled by Shimadzu LCMS solution software (version 3) to collect and process data. All samples were run with Solvent A and Solvent B with Solvent B gradient changing from 0%–90% at a rate of 13.8%/min over a 22 min run. The mobile phase consisted of 0.1% TFA/water (Solvent A) and 0.1% TFA/acetonitrile (Solvent B) for gemcitabine, gemcitabine prodrug and floxuridine prodrug. The mobile phase consisted of 0.1% ammonium hydroxide/water (Solvent A) and 0.1% ammonium hydroxide /acetonitrile (Solvent B) for floxuridine. The ESI probe was operated with a detector voltage of 1.5 kV, CDL temperature of 250 °C, heat block of 200 °C, and nebulizing gas flow of […] in positive mode for gemcitabine prodrugs and their metabolites. The drying gas was N2 delivered at 0.1 MPa.

A short description of data set [1]: Chemical stability in 0.01 N HCl, SIF (pH 6.0) and pH 7.4 phosphate buffer. The data set is classed as physicochemical. As to the method: The nonenzymatic hydrolysis of the prodrugs was determined as described above, except that each well contained pH 7.4 phosphate buffers (10 mmol/L) instead of cell homogenate.
The experiments concerning drug and their prodrug stability were performed at 37 °C in 0.01 N HCl, SIF (pH 6.0), and pH 7.4 phosphate buffer. […] Prodrug metabolites such as floxuridine, 5-fluorouracil (5-FU), gemcitabine, 2′-deoxy-2′,2′-difluorouridine, uracil, and cytosine were monitored along with prodrug disappearance in this experiment.

The subject of the next data set is Caco-2 cells. Kind of data set: Uptake study in Caco-2 cells. The data set is classed as cell-based. To be noted: 0.1 mM, 1 h. As to the method: as §1, §2
Where [2] appears, read: 0.01 N HCl, 37 °C, read-out: 0.01 N HCl t1/2.
Where [3] appears, read: SIF pH 6.0, 37 °C, read-out: SIF pH 6.0 t1/2.
The mark [4] stands for this setting: pH 7.4 phosphate buffer, 37 °C, read-out: Buffer pH 7.4 t1/2.

For `NC(Cc1ccccc1)C(=O)NC(Cc1ccc(O)cc1)C(=O)OCC1OC(n2cc(F)c(=O)[nH]c2=O)CC1O` [5′-L-Phenylalanyl-L-tyrosyl-floxuridine], the “Prodrug, share of uptake” value stood at 60% in the data set on AsPC-1 cells, 98% in the data set on Panc-1 cells and 45% with Caco-2 cells. Moreover, in the data set on mouse jejunum (perfusion buffer pH 6.0), the “Peff, mouse perfusion” value is on record as 1.9 ± 0.1 ×10^−5 cm/s. Moreover, in the data set on mouse jejunum, the “fold higher membrane permeability than parent drug” value was found to be 19.0 fold. The half-life in data set [1] (setting [2]), in data set [1] (setting [3]) and in data set [1] (setting [4]) was above 2 h each time.

Consider “2′,2′-difluoro-2′-deoxyuridine [Gemcitabine]”, for which the “Parent drug, share of uptake” value with AsPC-1 cells amounted to 90%; with Panc-1 cells, 20%; in the data set on Caco-2 cells, 95%. Also, the “Peff, mouse perfusion” value with mouse jejunum (perfusion buffer pH 6.0) is 0.2 ± 0.2 ×10^−5 cm/s; in the data set with mouse jejunum (perfusion buffer pH 6.0, listed as gemcitabine) it was 2e-06 cm/s. Besides, in data set [1] (0.01 N HCl, 37 °C), the “0.01 N HCl t1/2” value was above 2 h. In data set [1] (SIF pH 6.0, 37 °C), the “SIF pH 6.0 t1/2” value is reported as above 120 min. Moreover, the “Buffer pH 7.4 t1/2” value in data set [1] (pH 7.4 phosphate buffer, 37 °C) is above 120 min.

For `O=c1[nH]c(=O)n([C@H]2C[C@H](O)[C@@H](CO)O2)cc1F` [Floxuridine, 5-fluoro-2′-deoxyuridine], the “Peff, mouse perfusion” value was 0.1 ± 0.8 ×10^−5 cm/s in the data set on mouse jejunum (perfusion buffer pH 6.0) and 1e-06 cm/s in the data set with mouse jejunum (perfusion buffer pH 6.0, listed as floxuridine). In addition, the uptake amount entry in the data set on Panc-1 cells is recorded as “not observed”. In addition, the half-life in data set [1] (setting [2]), in data set [1] (setting [3]) and in data set [1] (setting [4]) was above 2 h in each case.

In the case of `Nc1ccn(C2OC(COC(=O)C(Cc3ccc(O)cc3)NC(=O)C(N)Cc3ccccc3)C(O)C2(F)F)c(=O)n1` [5′-L-Phenylalanyl-L-tyrosyl-gemcitabine], the “Prodrug, share of uptake” value stood at 39% in the data set on AsPC-1 cells, 9% in the data set on Panc-1 cells and 6% with Caco-2 cells. The “Peff, mouse perfusion” value in the data set with mouse jejunum (perfusion buffer pH 6.0) is recorded as 2.2 ± 0.4 ×10^−5 cm/s. In addition, the “fold higher membrane permeability than parent drug” value with mouse jejunum came to 11.0 fold. The half-life in data set [1] (setting [2]) was above 2 h; in data set [1] (setting [3]), above 2 h; in data set [1] (setting [4]), 0.56 ± 0.0233 h.
